The text below walks through data of ChEMBL document CHEMBL1154018, “Esters of betulin and betulinic acid with amino acids have improved water solubility and are selectively cytotoxic toward cancer cells” (Bioorg Med Chem Lett, 2009).

SMILES strings stand for the structures.

Series [1] is described as follows: Induction of apoptosis in human EPG85-257P cells assessed as normal cells after 24 hrs by comet assay. It is filed as functional.
Series [2] in a line: Induction of apoptosis in human EPP85-181P cells assessed as cell accumulation at apoptotic phase after 24 hrs by comet assay. It counts as functional.
Series [3] is described as follows: Induction of apoptosis in human EPG85-257P cells assessed as cell accumulation at apoptotic phase after 24 hrs by comet assay. It counts as functional.
A short description of series [4]: Cytotoxicity against daunorubicin-resistant human EPG85-257RDB cells after 24 hrs by SRB method. It is filed as functional, cell-based. (In SRB staining, fixed cells bind dye roughly in proportion to their protein.)
The nature of series [5]: Cytotoxicity against human EPG85-257P cells after 24 hrs by SRB method. It is filed as functional, cell-based.
Series [6] is described as follows: Cytotoxicity against daunorubicin-resistant human EPP85-181RDB cells after 24 hrs by SRB method. It counts as functional, cell-based.
Series [7] can be described thus: Cytotoxicity against human EPP85-181P cells after 24 hrs by SRB method. It is filed as functional, cell-based.
Series [8] can be described thus: Aqueous solubility in DMSO solution at 1 mg. It is filed as physicochemical.
Series [9] can be described thus: Induction of apoptosis in human EPP85-181P cells assessed as normal cells after 24 hrs by comet assay. It counts as functional.
The nature of series [10]: Chemical stability in 0.02M phosphatre buffer of pH 7.4 after 6 days by RP-HPLC. It is filed as physicochemical. To be noted: pH 7.4, 144 h.

As for `C=C(C)[C@@H]1CC[C@]2(C(=O)O)CC[C@]3(C)[C@H](CC[C@@H]4[C@@]5(C)CC[C@H](OC(=O)[C@@H](N)CC)C(C)(C)[C@@H]5CC[C@]43C)[C@@H]12`, the Activity in [1] is reported as 98.3%; in series [2], 69.6%; in series [3] it was 1.7%; in [9], 30.4%. The IC50 was more than 50 µM in series [4], 33 µM in [5], more than 50 µM in series [6] and 26 µM in series [7]. For the same molecule, in series [8], the solubility result is reported as “Soluble”.
Regarding `C=C(C)[C@@H]1CC[C@]2(COC(=O)[C@H](C)N)CC[C@]3(C)[C@H](CC[C@@H]4[C@@]5(C)CC[C@H](O)C(C)(C)[C@@H]5CC[C@]43C)[C@@H]12`, the Activity in series [1] was found to be 58%; in series [2], 5.2%; in [3] it was 42%; in series [9] it was 94%. The IC50 in series [4] was more than 50 µM; in series [5], 38 µM; in [6], more than 50 µM; in series [7] it was more than 50 µM. Moreover, the solubility result in [8] is listed as “Soluble”.
On to `C=C(C)[C@@H]1CC[C@]2(C(=O)O)CC[C@]3(C)[C@H](CC[C@@H]4[C@@]5(C)CC[C@H](OC(=O)[C@H](C)N)C(C)(C)[C@@H]5CC[C@]43C)[C@@H]12`, for which the Activity in [1] was 98.6%; in [2] it was 25.9%; in [3], 1.4%; in series [9] it was 74.1%. Further, the IC50 in series [4] is more than 50 µM; in series [5], 48 µM; in series [6], more than 50 µM; in [7] it was more than 50 µM. In addition, in series [8], the solubility entry is given as “Soluble”.
Turning to `C=C(C)[C@@H]1CC[C@]2(COC(=O)[C@@H](N)CCSC)CC[C@]3(C)[C@H](CC[C@@H]4[C@@]5(C)CC[C@H](OC(=O)[C@@H](N)CCSC)C(C)(C)[C@@H]5CC[C@]43C)[C@@H]12`, the Activity in series [1] turned out to be 84.9%; in series [2] it was 24.7%; in [3], 15.1%; in series [9] it was 75.3%. Also, the IC50 in series [4] was more than 50 µM; in series [5] it was 31 µM; in series [6], more than 50 µM; in series [7], 22 µM. Also, the solubility entry in [8] is recorded as “Soluble”.
`C=C(C)[C@@H]1CC[C@]2(C(=O)O)CC[C@]3(C)[C@H](CC[C@@H]4[C@@]5(C)CC[C@H](OC(=O)[C@@H](N)Cc6ccccc6)C(C)(C)[C@@H]5CC[C@]43C)[C@@H]12`: the Activity in series [1] is on record as 97.5%; in [2], 3.1%; in series [3], 2.5%; in series [9], 96.9%. The 50% inhibitory concentration (IC50) in [4], in series [5], in series [6] and in [7] was more than 50 µM throughout. Also, the solubility result in [8] was “Soluble”.
In the case of `C=C(C)[C@@H]1CC[C@]2(C(=O)O)CC[C@]3(C)[C@H](CC[C@@H]4[C@@]5(C)CC[C@H](OC(=O)[C@@H](N)CCCN)C(C)(C)[C@@H]5CC[C@]43C)[C@@H]12`, the Activity in [2] was found to be 99%; in series [9], 1%. Moreover, the IC50 is more than 50 µM in series [4], 9.7 µM in series [5], more than 50 µM in [6] and 14 µM in series [7]. Moreover, the solubility entry in series [8] is “Soluble”.
In the case of `C=C(C)[C@@H]1CC[C@]2(COC(=O)[C@@H](N)Cc3ccccc3)CC[C@]3(C)[C@H](CC[C@@H]4[C@@]5(C)CC[C@H](OC(=O)[C@@H](N)Cc6ccccc6)C(C)(C)[C@@H]5CC[C@]43C)[C@@H]12`, the Activity was 91% in [1], 1% in [2], 9% in series [3] and 99% in [9]. Also, the IC50 in [4], in series [5], in series [6] and in series [7] was more than 50 µM throughout. In addition, the solubility result in [8] is recorded as “Soluble”.
`C=C(C)[C@@H]1CC[C@]2(COC(=O)CN)CC[C@]3(C)[C@H](CC[C@@H]4[C@@]5(C)CC[C@H](OC(=O)CN)C(C)(C)[C@@H]5CC[C@]43C)[C@@H]12`: the values for the Activity in [2] and in series [9] were 0.5% and 99.5%, respectively. The IC50 in series [4], in series [5], in [6] and in series [7] was more than 50 µM throughout. In series [8], the solubility entry is reported as “Soluble”.
For `C=C(C)[C@@H]1CC[C@]2(COC(=O)[C@H](C)N)CC[C@]3(C)[C@H](CC[C@@H]4[C@@]5(C)CC[C@H](OC(=O)[C@H](C)N)C(C)(C)[C@@H]5CC[C@]43C)[C@@H]12`, the Activity in series [1] is given as 0%; in [2], 100%; in series [3], 100%; in series [9] it was 0%. The IC50 in [4] was more than 50 µM; in series [5], 17 µM; in series [6], 21 µM; in [7], 4.6 µM. The solubility result in series [8] was “Soluble”.
Turning to `C=C(C)[C@@H]1CC[C@]2(COC(=O)[C@@H](N)CCCCN)CC[C@]3(C)[C@H](CC[C@@H]4[C@@]5(C)CC[C@H](OC(=O)[C@@H](N)CCCCN)C(C)(C)[C@@H]5CC[C@]43C)[C@@H]12`, the Activity in [1] was determined as 0%; in series [2] it was 99.5%; in [3], 100%; in series [9] it was 0.5%. In addition, the half-maximal inhibitory concentration (IC50) in series [4] is more than 50 µM; in series [5] it was 4.1 µM; in [6], 18 µM; in [7], 3.8 µM. Further, in [10], the Stability result is “Stable”. Besides, the solubility entry in [8] was “Soluble”.
On to `C=C(C)[C@@H]1CC[C@]2(COC(=O)CN)CC[C@]3(C)[C@H](CC[C@@H]4[C@@]5(C)CC[C@H](O)C(C)(C)[C@@H]5CC[C@]43C)[C@@H]12`, for which the Activity in [1] turned out to be 90.2%; in series [2], 1.4%; in series [3], 9.8%; in [9], 98.6%. The IC50 in series [4], in [5], in series [6] and in series [7] was more than 50 µM throughout. The solubility result in series [8] is listed as “Soluble”.
Regarding `C=C(C)[C@@H]1CC[C@]2(C(=O)O)CC[C@]3(C)[C@H](CC[C@@H]4[C@@]5(C)CC[C@H](O)C(C)(C)[C@@H]5CC[C@]43C)[C@@H]12` [BETULINIC ACID], the Activity was 96% in series [1], 16% in series [2], 4% in [3] and 84% in series [9]. For the same molecule, the IC50 was more than 50 µM in [4], 42 µM in [5], more than 50 µM in series [6] and 32 µM in series [7]. Further, in series [8], the solubility result was “Soluble”.
For `C=C(C)[C@@H]1CC[C@]2(CO)CC[C@]3(C)[C@H](CC[C@@H]4[C@@]5(C)CC[C@H](O)C(C)(C)[C@@H]5CC[C@]43C)[C@@H]12` [BETULIN], the Activity was found to be 99.5% in [1], 2% in series [2], 0.5% in series [3] and 98% in series [9]. In addition, the IC50 in [4] is more than 50 µM; in [5], 26 µM; in series [6], 46 µM; in series [7], more than 50 µM. Besides, in series [8], the solubility entry is given as “Insoluble”.

As a reminder, the IC50 is the concentration at which inhibition is half-maximal. Lower therefore signals greater potency in that assay.
